Measurements: US7456133B2, “Substituted arylketones” (Bayer CropScience AG, priority 2001, dated 2008)

What was measured:
[1] = Log P by reversed-phase HPLC (C 18), acidic range; assay type: physicochemical; conditions: for chromatographic logP: reversed-phase HPLC column (C 18), given in the preparation examples, acidic or neutral range not given
Description: Log P values given in the tables were determined in accordance with EEC Directive 79/831 Annex V.A8 by HPLC (High Performance Liquid Chromatography) using a reversed-phase column (C 18). Temperature: 43° C. (a) Mobile phases for the determination in the acidic range: 0.1% aqueous phosphoric acid, acetonitrile; linear gradient from 10% acetonitrile to 90% acetonitrile—the corresponding measurement results in Tables 1 and 2 are labelled^a).

weeds = test: Post-emergence test, damage to weeds; assay type: in vivo; conditions: test plants of 5-15 cm sprayed, rated after three weeks
Description: Solvent: 5 part by weight of acetone
Emulsifier: 1 part by weight of alkylaryl polyglycol ether
To produce a suitable preparation of active compound, 1 part by weight of active compound is mixed with the stated amount of solvent, the stated amount of emulsifier is added and the concentrate is diluted with water to the desired concentration.
Test plants of a height of 5-15 cm are sprayed with the preparation of active compound such that the particular amounts of active compound desired are applied per unit area. The concentration of the spray liquor is chosen such that the particular amounts of active compound desired are applied in 1000 l of water/ha.
After three weeks, the degree of damage to the plants is rated in % damage in comparison to the development of the untreated control. The figures denote: • 0%=no effect (like untreated control) • 100%=total destruction

[2] = Table 1, labelled a): acidic range, 0.1% aqueous phosphoric acid/acetonitrile gradient, 43° C.
[3] = reversed-phase HPLC (C 18), acidic range: 0.1% aqueous phosphoric acid, acetonitrile; 43° C.; labelled a)

O=C(O)c1ccc(Cl)c(OCCCl)c1Cl [2,4-dichloro-3-(2-chloro-ethoxy)-benzoic acid]
chromatographic logP [1]: 2.31

CCn1ncc(C(=O)c2ccc(Cl)c(OCCNC(=S)NC)c2Cl)c1O [Example I-2-2, N-(2-{2,6-dichloro-3-[(1-ethyl-5-hydroxy-1H-pyrazol-4-yl)-carbonyl]-phenoxy}-ethyl)-N′-methyl-thiourea]
chromatographic logP [1]: 1.6

CCn1ncc(C(=O)c2ccc(Cl)c(OCCNC(C)=O)c2Cl)c1OCc1ccc(Br)cc1 [Example I-2-4, N-{2-[3-({5-[(4-bromo-benzyl)-oxy]-1-ethyl-1H-pyrazol-4-yl}-carbonyl)-2,6-dichloro-phenoxy]-ethyl}-acetamide]
chromatographic logP [1]: 2.06 | activity against weeds (weeds): strong activity

O=C1CCCC(=O)C1C(=O)c1ccc(Cl)c(CNC(=S)Nc2ccccc2)c1Cl [Example I-2-9]
log P [1, 2]: log P = 3.05^a)

CC(C)NC(=O)N(Cc1c(Cl)ccc(C(=O)C2C(=O)CCCC2=O)c1Cl)C(C)C [Example I-2-10]
log P [1, 2]: log P = 2.86^a)

CC(C)NC(=O)N(Cc1c(Cl)ccc(C(=O)c2cnn(C)c2O)c1Cl)C(C)C [Example I-2-11]
log P [1, 2]: log P = 2.02^a)

CC(C)N(Cc1c(Cl)ccc(C(=O)C2C(=O)CCCC2=O)c1Cl)C(N)=O [Example I-2-12]
log P [1, 2]: log P = 2.03^a)

COCC(=O)NCCOc1c(Cl)ccc(C(=O)C2C(=O)CCCC2=O)c1Cl [Example I-2-13]
log P [1, 2]: log P = 2.12^a)

CC(C)N(Cc1c(Cl)ccc(C(=O)c2cnn(C)c2O)c1Cl)C(N)=O [Example I-2-14]
log P [1, 2]: log P = 1.32^a)

CCNC(=O)N(Cc1c(Cl)ccc(C(=O)C2C(=O)CCCC2=O)c1Cl)C(C)C [Example I-2-15]
log P [1, 2]: log P = 2.33^a)

CCNC(=O)N(Cc1c(Cl)ccc(C(=O)c2cnn(C)c2O)c1Cl)C(C)C [Example I-2-16]
log P [1, 2]: log P = 1.42^a)

CC(C)N(Cc1c(Cl)ccc(C(=O)C2C(=O)CCCC2=O)c1Cl)C(=O)N(C)C [Example I-2-17]
log P [1, 2]: log P = 2.82^a)

CC(C)N(Cc1c(Cl)ccc(C(=O)c2cnn(C)c2O)c1Cl)C(=O)N(C)C [Example I-2-18]
log P [1, 2]: log P = 2.00^a)

Cc1ccccc1NC(=O)NCc1c(Cl)ccc(C(=O)c2cnn(C)c2O)c1Cl [Example I-2-19]
log P [1, 2]: log P = 1.95^a)

CN(C)C(=O)NCc1c(Cl)ccc(C(=O)C2C(=O)CCCC2=O)c1Cl [Example I-2-21]
log P [1, 2]: log P = 1.87^a)

CC(C)NC(=O)NCc1c(Cl)ccc(C(=O)c2cnn(C)c2O)c1Cl [Example I-2-22]
log P [1, 2]: log P = 1.35^a)

CN(C)C(=O)NCc1c(Cl)ccc(C(=O)c2cnn(C)c2O)c1Cl [Example I-2-23]
log P [1, 2]: log P = 1.13^a)

CN(C)C(=O)N(Cc1c(Cl)ccc(C(=O)C2C(=O)CCCC2=O)c1Cl)C1CC1 [Example I-2-24]
log P [1, 2]: log P = 2.45^a)

CN(C)C(=O)N(Cc1c(Cl)ccc(C(=O)c2cnn(C)c2O)c1Cl)c1ccc(Cl)cc1 [Example I-2-25]
log P [1, 2]: log P = 1.69^a)

CC(C)N(Cc1c(Cl)ccc(C(=O)C2C(=O)CCCC2=O)c1Cl)C(=O)Oc1ccccc1 [Example I-2-42]
log P [1, 2]: log P = 4.25^a)

CC(C)N(Cc1c(Cl)ccc(C(=O)c2cnn(C)c2O)c1Cl)C(=O)Oc1ccccc1 [Example I-2-43]
log P [1, 2]: log P = 3.19^a)

CCOC(=O)N(Cc1c(Cl)ccc(C(=O)C2C(=O)CCCC2=O)c1Cl)C(C)C [Example I-2-44]
log P [1, 2]: log P = 3.69^a)

CCOC(=O)N(Cc1c(Cl)ccc(C(=O)c2cnn(C)c2O)c1Cl)C(C)C [Example I-2-45]
log P [1, 2]: log P = 2.69^a)

CC(C)NC(=O)N(Cc1c(Cl)ccc(C(=O)C2C(=O)CCCC2=O)c1Cl)C1CC1 [Example I-2-56]
log P [1, 2]: log P = 2.75^a)

CNC(=S)N(Cc1c(Cl)ccc(C(=O)c2cnn(C)c2O)c1Cl)C(C)C [Example I-2-58]
log P [1, 2]: log P = 1.91^a)

CNC(=O)N(C)Cc1c(Cl)ccc(C(=O)C2C(=O)CCCC2=O)c1Cl [Example I-2-59]
log P [1, 2]: log P = 1.81^a)

CNC(=O)N(C)Cc1c(Cl)ccc(C(=O)c2cnn(C)c2O)c1Cl [Example I-2-60]
log P [1, 2]: log P = 1.11^a)

CN(C)C(=O)N(C)Cc1c(Cl)ccc(C(=O)C2C(=O)CCCC2=O)c1Cl [Example I-2-61]
log P [1, 2]: log P = 2.26^a)

CN(C)C(=O)N(C)Cc1c(Cl)ccc(C(=O)c2cnn(C)c2O)c1Cl [Example I-2-62]
log P [1, 2]: log P = 1.48^a)

CNC(=S)N(C)Cc1c(S(C)(=O)=O)ccc(C(=O)C2C(=O)CCCC2=O)c1Cl [Example I-2-63]
log P [1, 2]: log P = 1.81^a)

CNC(=S)N(C)Cc1c(S(C)(=O)=O)ccc(C(=O)c2cnn(C)c2O)c1Cl [Example I-2-64]
log P [1, 2]: log P = 1.00^a)

Cn1ncc(C(=O)c2ccc(S(C)(=O)=O)c(CNC(N)=O)c2Cl)c1O [Example I-2-65]
log P [1, 2]: log P = 0.30^a)

CCNC(=O)NCc1c(S(C)(=O)=O)ccc(C(=O)C2C(=O)CCCC2=O)c1Cl [Example I-2-66]
log P [1, 2]: log P = 1.57^a)

O=C(NCCOc1c(Cl)ccc(C(=O)C2C(=O)CCCC2=O)c1Cl)C1CC1 [Example I-2-68]
log P [1, 2]: log P = 2.28^a)

CC(C)OC(=O)NCCOc1c(Cl)ccc(C(=O)C2C(=O)CCCC2=O)c1Cl [Example I-2-69]
log P [1, 2]: log P = 2.98^a)

CNC(=O)NCCOc1c(Cl)ccc(C(=O)C2C(=O)CCCC2=O)c1Cl [Example I-2-73]
log P [1, 2]: log P = 1.84^a)

CNC(=S)NCCOc1c(Cl)ccc(C(=O)C2C(=O)CCCC2=O)c1Cl [Example I-2-75]
log P [1, 2]: log P = 2.23^a)

Cc1ccccc1NC(=O)NCc1c(S(C)(=O)=O)ccc(C(=O)c2cnn(C)c2O)c1Cl [Example I-2-81]
log P [1, 2]: log P = 1.58^a)

CN(C)C(=O)NCc1c(S(C)(=O)=O)ccc(C(=O)C2C(=O)CCCC2=O)c1Cl [Example I-2-82]
log P [1, 2]: log P = 1.58^a)

CN(C)C(=O)NCc1c(S(C)(=O)=O)ccc(C(=O)c2cnn(C)c2O)c1Cl [Example I-2-83]
log P [1, 2]: log P = 0.77^a)

Cn1ncc(C(=O)c2ccc(Cl)c(OCCNC(N)=O)c2Cl)c1O [Example I-2-118]
log P [1, 2]: log P = 1.66^a)

Cn1ncc(C(=O)c2ccc(Cl)c(OCCNC(N)=O)c2Cl)c1O [Example I-2-119]
log P [1, 2]: log P = 1.22^a)

Cc1ccccc1NC(=O)NCc1c(S(C)(=O)=O)ccc(C(=O)C2C(=O)CCCC2=O)c1Cl [Example I-2-140]
log P [1, 2]: log P = 2.35^a)

CC(C)NC(=O)N(Cc1ccc(C(=O)C2C(=O)CCCC2=O)c([N+](=O)[O-])c1)C(C)C [Example I-3-5]
log P [1, 3]: log P = 2.53^a)

CC(C)NC(=O)N(Cc1ccc(C(=O)c2cnn(C)c2O)c([N+](=O)[O-])c1)C(C)C [Example I-3-6]
log P [1, 3]: log P = 1.64^a)

CC(C)N(Cc1ccc(C(=O)c2cnn(C)c2O)c([N+](=O)[O-])c1)C(=O)N(C)C [Example I-3-7]
log P [1, 3]: log P = 1.63^a)

CCNC(=O)N(Cc1ccc(C(=O)C2C(=O)CCCC2=O)c([N+](=O)[O-])c1)c1ccccc1 [Example I-3-8]
log P [1, 3]: log P = 2.60^a)

CCNC(=O)N(Cc1ccc(C(=O)c2cnn(C)c2O)c([N+](=O)[O-])c1)c1ccccc1 [Example I-3-9]
log P [1, 3]: log P = 1.75^a)

CC(C)NC(=O)N(Cc1ccc(C(=O)C2C(=O)CCCC2=O)c([N+](=O)[O-])c1)c1ccccc1 [Example I-3-10]
log P [1, 3]: log P = 2.94^a)

CC(C)NC(=O)N(Cc1ccc(C(=O)c2cnn(C)c2O)c([N+](=O)[O-])c1)c1ccccc1 [Example I-3-11]
log P [1, 3]: log P = 2.05^a)

CNC(=O)N(C)Cc1ccc(C(=O)c2cnn(C)c2O)c([N+](=O)[O-])c1 [Example I-3-25]
log P [1, 3]: log P = 0.68^a)

CC(C)N(Cc1ccc(C(=O)C2C(=O)CCCC2=O)c([N+](=O)[O-])c1)C(=O)Oc1ccccc1 [Example I-3-39]
log P [1, 3]: log P = 3.53^a)

CC(C)N(Cc1ccc(C(=O)c2cnn(C)c2O)c([N+](=O)[O-])c1)C(=O)Oc1ccccc1 [Example I-3-40]
log P [1, 3]: log P = 2.59^a)

CCOC(=O)N(Cc1ccc(C(=O)C2C(=O)CCCC2=O)c([N+](=O)[O-])c1)C(C)C [Example I-3-41]
log P [1, 3]: log P = 3.04^a)

CCOC(=O)N(Cc1ccc(C(=O)c2cnn(C)c2O)c([N+](=O)[O-])c1)C(C)C [Example I-3-42]
log P [1, 3]: log P = 2.06^a)

CCn1ncc(C(=O)c2ccc(Cl)c(OCCN)c2Cl)c1O [II-1, [3-(2-amino-ethoxy)-2,4-dichloro-phenyl]-(1-ethyl-5-hydroxy-1H-pyrazol-4-yl)-methanone]
chromatographic logP [1]: 0.72

CCn1ncc(C(=O)c2ccc(Cl)c(OCCCl)c2Cl)c1O [[2,4-dichloro-3-(2-chloro-ethoxy)-phenyl]-(1-ethyl-5-hydroxy-1H-pyrazol-4-yl)-methanone]
chromatographic logP [1]: 2.73

CCOC(=O)c1ccc(Cl)c(OCCCl)c1Cl [ethyl 2,4-dichloro-3-(2-chloro-ethoxy)-benzoate]
chromatographic logP [1]: 3.76
